According to ChEMBL document CHEMBL5500416, “Development of a Potent and Selective G2A (GPR132) Agonist” (J Med Chem, 2024):

Experiments:
[1] = target: T1, Probable G-protein coupled receptor 132 (Homo sapiens, UniProt Q9UNW8)
T1 sequence (Q9UNW8 whole entry): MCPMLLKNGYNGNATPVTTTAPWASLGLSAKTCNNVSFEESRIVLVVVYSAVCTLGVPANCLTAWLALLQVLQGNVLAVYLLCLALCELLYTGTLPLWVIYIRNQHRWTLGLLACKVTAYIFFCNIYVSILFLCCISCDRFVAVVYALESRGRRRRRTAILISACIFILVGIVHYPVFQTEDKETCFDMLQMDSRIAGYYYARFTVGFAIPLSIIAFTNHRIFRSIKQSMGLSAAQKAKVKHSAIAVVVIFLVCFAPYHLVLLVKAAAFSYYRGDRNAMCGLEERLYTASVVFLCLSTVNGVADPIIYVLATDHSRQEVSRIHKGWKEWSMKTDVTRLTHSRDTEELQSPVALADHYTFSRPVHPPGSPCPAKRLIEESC
Description: Agonist activity at human G2A expressed in CHO-K1 cells co-expressing human GNA11 assessed as accumulation of IP-1 incubated for 90 mins by HTRF based FRET assay

[2] = Cmax in male C57BL/6N mouse at 10 mg/kg, sc measured after 12 hrs by LC-MS analysis; type: ADME, organism-based; conditions: in vivo
[3] = Metabolic stability in Sprague-Dawley rat liver microsomes assessed as parent compound remaining measured after 60 mins in presence of NADPH regenerating system by HPLC analysis; type: ADME, Microsome; conditions: read-out: Stability
[4] = AUC (0 to 8 hrs) in male C57BL/6N mouse at 1 mg/kg, iv measured after 8 hrs by LC-MS analysis; type: ADME, organism-based; conditions: in vivo
[5] = Tmax in male C57BL/6N mouse at 10 mg/kg, sc measured after 12 hrs by LC-MS analysis; type: ADME, organism-based; conditions: in vivo
[6] = Tmax in male C57BL/6N mouse at 1 mg/kg, iv measured after 8 hrs by LC-MS analysis; type: ADME, organism-based; conditions: in vivo
[7] = target: T1, Probable G-protein coupled receptor 132; remark: listed apart in the source
Description: Binding affinity to SmBit-tagged human G2A expressed in CHOK-1 cells co-expressing LgBit-betaarrestin2 incubated for 15 mins by NanoLuc betaarrestin2 recruitment assay

[8] = Drug concentration in male C57BL/6N mouse plasma at 10 mg/kg, sc measured after 12 hrs by LC-MS analysis; type: ADME, organism-based
[9] = Drug concentration in male C57BL/6N mouse plasma at 1 mg/kg, iv measured after 8 hrs by LC-MS analysis; type: ADME, organism-based
[10] = Metabolic stability in Sprague-Dawley rat liver microsomes assessed as intrinsic clearance measured after 60 mins in presence of NADPH regenerating system by HPLC analysis; type: ADME, Microsome; conditions: 1 h
[11] = Clearance in male C57BL/6N mouse at 10 mg/kg, sc measured after 12 hrs by LC-MS analysis; type: ADME, organism-based; conditions: in vivo
[12] = Cmax in male C57BL/6N mouse at 1 mg/kg, iv measured after 8 hrs by LC-MS analysis; type: ADME, organism-based; conditions: in vivo
[13] = Cytotoxicity against human HepG2 cells assessed as cell viability upto 100 uM incubated for 72 hrs by CellTiter-Glo assay relative to control; type: toxicity, cell-based; conditions: read-out: Activity
[14] = Aqueous solubility of compound in PBS at pH 7.4 measured after 24 hrs by microplate analysis; type: physicochemical; conditions: buffer, pH 7.4, 24 h
[15] = AUC (0 to 12 hrs) in male C57BL/6N mouse at 10 mg/kg, sc measured after 12 hrs by LC-MS analysis; type: ADME, organism-based; conditions: in vivo

SMILES | EC50 [1] | further results
O=C1C2=C(CCN(Cc3ccccc3)C2)N2CCN=C2N1Cc1ccc(C(F)(F)F)cc1 | 3.92 µM | –
O=C(N[C@H](Cc1ccccc1)C(=O)O)c1cccc(OCc2cccnc2)c1 | 0.82 µM | Cmax [2]: 755 ng/mL; remaining at 1 h [3]: 98%; AUC(0-t) at 8 h [4]: 47.3 ng·h/mL; Tmax [5]: 30 min; Tmax [6]: 15 min; EC50 [7]: 7.7 µM; concentration at 12 h [8]: 2.9 ng/mL; concentration at 8 h [9]: 2.4 ng/mL; CLint [10]: 1.68 µL/min/mg; CL/F [11]: 141 mL/min/kg; Cmax [12]: 45.3 ng/mL; viability at 72 h, up to 100 µM [13]: ≥ 90%; solubility [14]: >= 3000 uM; AUC(0-t) at 12 h [15]: 591 ng·h/mL
O=C(NC(Cc1ccccc1)C(=O)O)c1cccc(OCc2ccccc2)c1 (stereo unspecified) | 7.5 µM | –
O=C(N[C@H](Cc1ccc(Cl)cc1)C(=O)O)c1cccc(OCc2cccnc2)c1 | 7.53 µM | –
O=C(N[C@@H](CC1CCCCC1)C(=O)O)c1cccc(OCc2cccnc2)c1 | 12.2 µM | –
O=C(N[C@@H](C(=O)O)c1ccccc1)c1cccc(OCc2cccnc2)c1 | 38.4 µM | –
C[C@H]1CC[C@@](NC(=O)c2cccc(OCc3cccnc3)c2)(C(=O)O)CC1 | 13.2 µM | –
CCC(NC(=O)c1cccc(OCc2cccnc2)c1)C(=O)O (stereo unspecified) | 27.5 µM | –
O=C(NC(Cc1ccc(F)cc1)C(=O)O)c1cccc(OCc2cccnc2)c1 (stereo unspecified) | 1.96 µM | –
O=C(NC(Cc1ccccc1)C(=O)O)c1cccc(OCc2cccnc2)c1 (stereo unspecified) | 1.74 µM | viability at 72 h, up to 100 µM [13]: ≥ 90%
CCC[C@@H](NC(=O)c1cccc(OCc2cccnc2)c1)C(=O)O | 40.6 µM | –
O=C(N[C@H](CCc1ccccc1)C(=O)O)c1cccc(OCc2cccnc2)c1 | 12 µM | –
CCCC(NC(=O)c1cccc(OCc2cccnc2)c1)C(=O)O (stereo unspecified) | 6.87 µM | –
COC[C@H](NC(=O)c1cccc(OCc2cccnc2)c1)C(=O)O | > 100 µM | –
O=C(NC(C(=O)O)c1cccnc1)c1cccc(OCc2cccnc2)c1 (stereo unspecified) | 79.2 µM | –
O=C(N[C@H](Cc1ccc(C(F)(F)F)cc1)C(=O)O)c1cccc(OCc2cccnc2)c1 | 8.71 µM | –

SMILES | EC50 [1] | further results
O=C(NC(C(=O)O)C1CC1)c1cccc(OCc2cccnc2)c1 (stereo unspecified) | > 100 µM | –
O=C(N[C@@H](Cc1ccccc1)C(=O)O)c1cccc(OCc2cccnc2)c1 | 31.1 µM | –
CC(NC(=O)c1cccc(OCc2cccnc2)c1)(C(=O)O)c1ccccc1 (stereo unspecified) | 6.2 µM | –
O=C(NC(Cc1ccncc1)C(=O)O)c1cccc(OCc2cccnc2)c1 (stereo unspecified) | 49.7 µM | –
CCC[C@H](NC(=O)c1cccc(OCc2cccnc2)c1)C(=O)O | 2.92 µM | –
O=C(NC(Cc1ccccc1Cl)C(=O)O)c1cccc(OCc2cccnc2)c1 (stereo unspecified) | 13.5 µM | –
CC(C)[C@H](NC(=O)c1cccc(OCc2cccnc2)c1)C(=O)O | 7.33 µM | –
CC(c1ccccc1)C(NC(=O)c1cccc(OCc2cccnc2)c1)C(=O)O (stereo unspecified) | 19.6 µM | –
O=C(N[C@@H](CCc1ccccc1)C(=O)O)c1cccc(OCc2cccnc2)c1 | 68.5 µM | –
CC(C)[C@@H](NC(=O)c1cccc(OCc2cccnc2)c1)C(=O)O | 64.8 µM | –
CCCCC/C=C\C=C\C(O)CCCCCCCC(=O)O (racemic) | 7.5 µM | –
O=C(NC(Cc1ccccc1)C(=O)O)c1cccc(OCc2ccncc2)c1 (racemic) | 2.87 µM | –
O=C(NC(Cc1ccccc1)C(=O)O)c1ccc(OCc2cccnc2)cc1 (racemic) | 38.2 µM | –
O=C(NC(Cc1ccc(OC(F)(F)F)cc1)C(=O)O)c1cccc(OCc2cccnc2)c1 (racemic) | 3.34 µM | –
O=C(NC(Cc1ccccc1)C(=O)O)c1cccc(OCc2ccccn2)c1 (racemic) | 11.9 µM | –
